# Laboratory results as given in PubChem BioAssay (NCI).
# Values joined by “and” are separate entries in the source; they are usually repeats but may differ in a detail not shown here. Equal values may be shown once.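 Where inhibition never reached the appropriate level, the endpoint shown equals the highest concentration tested. Otherwise, values were interpolated linearly from a five-concentration, 48-hour dose response in 96-well plates. GI50 = concentration required for 50% inhibition of growth. Definition used: TGI = concentration required for complete inhibition of growth.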
# Tested on: MDA-MB-468 breast
# Test: growth of human tumour cells (NCI), 48 h
SMILES,GI50,TGI
CCOC(=O)c1ccc2c(c1)c1c(C)c3ccncc3c(C)c1n2C,1160 nM,2830 nM
CC#Cc1nc2ccccc2c(=O)[nH]1,2360 nM,6040 nM
CCN1CCN(c2cc(C)nc(N(CCCNc3ccnc4cc(Cl)ccc34)Cc3cccs3)n2)CC1,1980 nM,5090 nM
CC(C)(O)c1coc(S(=O)(=O)/N=C(\O)Nc2c3c(cc4c2CCC4)CCC3)c1,> 100000 nM,> 100000 nM
Cc1cc(C)c(CNC(=O)c2cc(-c3ccc(CN4CCOCC4)cc3)cc3c2cnn3C2CCCC2)c(=O)[nH]1,13900 nM,36200 nM
O=C1OCC2=C1C(c1cccc(F)c1)c1cc3c(cc1N2CCO)CCC3 (stereo unspecified),37.1 nM,1090 nM
CCOC(=O)c1c(NCC(=O)Nc2cccc([N+](=O)[O-])c2)sc(C(C)=O)c1C,1850 nM,4530 nM
Cc1c(NC(=O)c2cc(C(N)=O)nc3cc(F)ccc23)c(C(F)(F)F)nn1Cc1ccc(C#N)cc1,6580 nM,> 71900 nM
COc1c(OCCCN2CCOCC2)ccc2c3n(c(=NC(=O)c4cnc(N)nc4)nc12)CCN3,21.2 nM and 27.9 nM and 38.9 nM,229 nM [middle of 4 runs]
CCCCCCCCCCCCC[N+](C)(C)Cc1ccccc1,213 nM,852 nM
CC(C)=CC(=O)OCC(=O)O[C@@H]1C[C@]2(C(C)C)O[C@@]1(C)[C@@H]1CC[C@@H](C)[C@H]1[C@@H]2OC(=O)/C=C/c1ccccc1,11400 nM,> 82700 nM
CCOC(=O)c1cc(C(=O)c2ccc(Cl)cc2)n2ccc(-c3cc[n+](CC(=O)c4ccc(OC)cc4)cc3)cc12,1840 nM,3750 nM
CC1=C(SCCC(=O)OCC(=O)NCCC[Te]c2ccccc2)C(=O)c2ccccc2C1=O,1810 nM,3610 nM
Nc1ccc2c(c1)Cc1cc(Cl)c(Cl)cc1-2,1360 nM,86400 nM
COc1cccc2c1C(=O)c1c(O)c3c(c(O)c1C2=O)C[C@@](O)(C(=O)CO)C[C@@H]3OC1CC(N)C(O)C(C)O1 (stereo partly specified),59.9 nM and 58.9 nM and 97.1 nM,250 nM and 236 nM and 486 nM
CC(=O)OCC1OC(OC2=C(CC=C(C)C)C(=O)c3ccccc3C2=O)C(OC(C)=O)C(OC(C)=O)C1OC(C)=O (stereo unspecified),1580 nM,3680 nM
COc1cc(Nc2cc(C)nc(N3CCN(c4ccnc5cc(Cl)ccc45)CC3)n2)cc(OC)c1,129 nM,3200 nM
O=C1/C(=C\c2ccc(Br)cc2)CN(C(=O)c2ccccc2F)C/C1=C\c1ccc(Br)cc1,1690 nM,3690 nM
COc1cc(/C=C/C(=O)c2cc(OC)c(OC)c(OC)c2)ccc1Oc1nc2c(c(=O)n(C)c(=O)n2C)n1C,1920 nM,3730 nM
COC(=O)c1c2c(c[n+]([O-])c1C)C(=O)C=C(NCc1ccccc1)C2=O,138 nM,371 nM
CN(C)c1ccc2nc3ccc(=N)cc-3sc2c1,3520 nM,13800 nM

SMILES,GI50,TGI
CC1(C)CCC(S(=O)(=O)c2ccc3c(c2)/C(=N\O)c2cc(S(=O)(=O)N4CCN(c5ccc(F)cc5O)CC4)ccc2-3)CC1,37.1 nM,134 nM
O=C(N/N=C/c1ccc(Cl)s1)c1[nH]c2ccc(Br)cc2c1-c1ccccc1,286 nM,4200 nM
c1cc(N2CCCC2)c2nc(-c3[nH]ncc3Nc3ncnc4[nH]ccc34)[nH]c2c1,66.1 nM,265 nM
COc1cc(C(=O)/C=C/c2c(-c3cccs3)nc3sc(C)cn23)cc(OC)c1OC,2230 nM,8450 nM
O=C1NC(=NCCc2cccs2)S/C1=C\c1ccc2ncccc2c1,5530 nM,> 25000 nM
Cn1cc(C2=C(Sc3ccccc3)C(=O)NC2=O)c2ccccc21,4940 nM,10400 nM
CCN(CC)c1ccc(N=O)cc1,1720 nM,4390 nM
C=C(C)[C@@H]1CC[C@]2(CNCCO)CC[C@]3(C)[C@H](CC[C@@H]4[C@@]5(C)CCC(N)[C@@](C)(CO)[C@@H]5CC[C@]43C)[C@@H]12 (stereo partly specified),1610 nM,3180 nM
Nc1nc2c(c3cnccc13)C(c1cccc(Br)c1)Cc1cnccc1-2 (stereo unspecified),257 nM,808 nM
COc1ccc2c(c1)N(CCO)C1=C(C(=O)OC1)C2c1cc(OC)c(OC)c(OC)c1 (stereo unspecified),12.3 nM,40.5 nM
NC(=O)c1cccc(-n2ccc3cc(NC(=O)Nc4ccc(N5CCOCC5)c(C(F)(F)F)c4)ccc32)n1,2440 nM,7530 nM
CC[C@]12C=CCN3CC[C@]4(C(=C(C(=O)OC)C1)Nc1cc(OC)c(OC(C)=O)cc14)[C@@H]32,428 nM,20200 nM
COc1ccc(C2=C(c3cn(C)c4ccccc34)C(=O)NC2=O)cc1,9840 nM,> 25000 nM
COc1cc2c3c(n(CCCN4CCCCC4)c(=O)c2cc1OC)-c1cc2c(cc1C3=O)OCO2,1490 nM,2860 nM
CCCCCCCCCCCCCCCCCCOP(=O)([O-])OC1CC[N+](C)(C)CC1,3740 nM,> 10000 nM
COc1ccc2c(CCC(c3ccccc3)c3ccccc3)c3[n+](cc2c1OC)CCc1cc2c(cc1-3)OCO2,–,228 nM
CC(C)(C)c1[nH]nc2c1C(c1cc3ccccc3[nH]c1=O)Nc1cc(C(=O)Nc3ccc(Cl)cc3)ccc1N2 (stereo unspecified),1360 nM,3080 nM
Cc1cccc(NC(=O)c2sc3nc4c(cc3c2N)CCCC4)c1,1750 nM,44100 nM
Cc1ncn(-c2ccc(/C=N/Nc3ccnc4cc(Cl)ccc34)cc2)c1C,1480 nM,3000 nM
COc1cc(C2c3cc4c(cc3OC(N3CCCCC3)C2C)OCO4)cc(OC)c1OC (stereo unspecified),3660 nM,30300 nM
